Converted amounts (≈) assume the structure as drawn.

Format in all cases: functional
In assay [1] the test system is Staphylococcus aureus. The assay is described as follows: Potency index, ratio of Linezolid MIC to test compound MIC for antibacterial activity against methicillin- resistant Staphylococcus aureus assessed as bacterial growth inhibition by dilution method.
Assay [2] has as its system Staphylococcus aureus. The assay is described as follows: Antibacterial activity against Staphylococcus aureus assessed as bacterial growth inhibition by dilution method.
Assay [3] concerns Staphylococcus aureus. Kind of assay: Antibacterial activity against methicillin- resistant Staphylococcus aureus assessed as bacterial growth inhibition by dilution method.
Assay [4] deals with Streptococcus pyogenes. Kind of assay: Potency index, ratio of Ciprofloxacin MIC to test compound MIC for antibacterial activity against Streptococcus pyogenes MTCC 442 assessed as bacterial growth inhibition by broth microdilution method.
The test system of assay [5] is Escherichia coli. The assay is described as follows: Potency index, ratio of Ciprofloxacin MIC to test compound MIC for antibacterial activity against Escherichia coli MTCC 443 assessed as bacterial growth inhibition by broth microdilution method.
In assay [6] the test system is Staphylococcus aureus. The assay is described as follows: Potency index, ratio of Ciprofloxacin MIC to test compound MIC for antibacterial activity against Staphylococcus aureus MTCC 96 assessed as bacterial growth inhibition by broth microdilution method. On the technique in general: Broth dilution looks for growth in wells or tubes with falling amounts of substance.

Assay [7] concerns Pseudomonas aeruginosa. Kind of assay: Potency index, ratio of Ciprofloxacin MIC to test compound MIC for antibacterial activity against Pseudomonas aeruginosa MTCC 1688 assessed as bacterial growth inhibition by broth microdilution method.
In assay [8] the test system is Streptococcus pyogenes. Kind of assay: Antibacterial activity against Streptococcus pyogenes MTCC 442 assessed as bacterial growth inhibition by broth microdilution method.
For assay [9], the system named is Pseudomonas aeruginosa. The assay is described as follows: Antibacterial activity against Pseudomonas aeruginosa MTCC 1688 assessed as bacterial growth inhibition by broth microdilution method.
For assay [10], the system named is Escherichia coli. The assay is described as follows: Antibacterial activity against Escherichia coli MTCC 443 assessed as bacterial growth inhibition by broth microdilution method.
Assay [11] relates to Staphylococcus aureus. Kind of assay: Antibacterial activity against Staphylococcus aureus MTCC 96 assessed as bacterial growth inhibition by broth microdilution method.
For assay [12], the system named is Pseudomonas aeruginosa. Kind of assay: Potency index, ratio of Penicillin MIC to test compound MIC for antibacterial activity against Pseudomonas aeruginosa assessed as bacterial growth inhibition by broth dilution method.
In assay [13] the test system is Klebsiella pneumoniae. The assay is described as follows: Antibacterial activity against Klebsiella pneumoniae assessed as bacterial growth inhibition by broth dilution method.
For assay [14], the system named is Klebsiella pneumoniae. Kind of assay: Potency index, ratio of Penicillin MIC to test compound MIC for antibacterial activity against Klebsiella pneumoniae assessed as bacterial growth inhibition by broth dilution method.
Assay [15] relates to Pseudomonas aeruginosa. The assay is described as follows: Antibacterial activity against Pseudomonas aeruginosa assessed as bacterial growth inhibition by broth dilution method.
The test system of assay [16] is Escherichia coli. Kind of assay: Antibacterial activity against Escherichia coli MTCC 443 assessed as bacterial growth inhibition incubated for 24 hrs by serial dilution method.
The test system of assay [17] is Klebsiella pneumoniae. The assay is described as follows: Antibacterial activity against Klebsiella pneumoniae NCDC 138 assessed as bacterial growth inhibition incubated for 24 hrs by serial dilution method.
The subject of assay [18] is Staphylococcus aureus. Kind of assay: Antibacterial activity against Staphylococcus aureus ATCC 29213 assessed as bacterial growth inhibition incubated for 16 to 20 hrs by CLSI based broth microdilution method. The note with it: time 16-20 hrs.
Assay [19] deals with Escherichia coli. The assay is described as follows: Antibacterial activity against Escherichia coli ATCC 25922 assessed as bacterial growth inhibition incubated for 16 to 20 hrs by CLSI based broth microdilution method. The following applies: time 16-20 hrs.
The test system of assay [20] is Pseudomonas aeruginosa. The assay is described as follows: Antibacterial activity against Pseudomonas aeruginosa ATCC 27853 assessed as bacterial growth inhibition incubated for 16 to 20 hrs by CLSI based broth microdilution method. The note with it: time 16-20 hrs.
For assay [21], the system named is Staphylococcus aureus. Kind of assay: Antibacterial activity against Staphylococcus aureus ATCC 25923 assessed as bacterial growth inhibition incubated for 18 to 20 hrs by broth microdilution method. The note with it: time 18-20 hrs.
In assay [22] the test system is Escherichia coli. Kind of assay: Antibacterial activity against Escherichia coli assessed as bacterial growth inhibition by agar well diffusion method. A general note: Agar diffusion results depend on both activity and mobility in agar.
Assay [23] deals with Staphylococcus aureus. The assay is described as follows: Antibacterial activity against Staphylococcus aureus assessed as bacterial growth inhibition by agar well diffusion method.
The test system of another assay is Bacillus subtilis. The assay is described as follows: Antibacterial activity against Bacillus subtilis assessed as bacterial growth inhibition by agar well diffusion method.
For assay [24], the system named is Pseudomonas aeruginosa. The assay is described as follows: Antibacterial activity against Pseudomonas aeruginosa assessed as bacterial growth inhibition by agar well diffusion method.

What is called MIC is the lowest concentration found to suppress growth. As for `CC(=O)NC[C@H]1CN(c2ccc(-n3cc(-c4ncccn4)nn3)c(F)c2)C(=O)O1`, the Ratio in the assay on Staphylococcus aureus [1] was determined as 4. The MIC in the assay on Staphylococcus aureus [2] amounted to 2 µg/mL (≈ 5.03 µM); with Staphylococcus aureus [3], 0.5 µg/mL (≈ 1.26 µM).

Turning to `CN(C)Cc1cn([C@@H]2C(=O)N3[C@@H]2SC(C)(C)[C@@H]3C(=O)O)nn1`, the Ratio in the assay with Streptococcus pyogenes [4], with Escherichia coli [5], in the assay on Staphylococcus aureus [6] and in the assay with Pseudomonas aeruginosa [7] was 2.5 in each case. Further, the MIC in the assay on Streptococcus pyogenes [8], with Pseudomonas aeruginosa [9], with Escherichia coli [10] and with Staphylococcus aureus [11] was 0.5 µg/mL (≈ 1.54 µM) in each case.

In the case of `CC1(C)O[C@@H]2[C@@H](CC[C@]3(COC(C)(C)O3)[C@H]2OCc2cn(-c3c(Cl)cc(Cl)cc3Cl)nn2)O1`, the Ratio is 16 in the assay with Pseudomonas aeruginosa [12] and 4 in the assay on Klebsiella pneumoniae [14]. For the same compound, the MIC turned out to be 9.37 µg/mL (≈ 18.1 µM) in the assay on Klebsiella pneumoniae [13] and 1.17 µg/mL (≈ 2.26 µM) in the assay on Pseudomonas aeruginosa [15].

As to `CC(C)(NS(=O)(=O)c1ccccc1)c1cn(-c2ccc(Br)cc2)nn1`, the minimum inhibitory concentration (MIC) worked out at 25 µg/mL (≈ 59.3 µM) in the assay on Escherichia coli [16] and 12.5 µg/mL (≈ 29.7 µM) in the assay with Klebsiella pneumoniae [17].

For the compound `CC(=O)OC[C@@H]1O[C@H](n2cc(CNC(=O)c3ccc(-c4ccc(Br)cc4)o3)nn2)[C@@H](OC(C)=O)[C@H](OC(C)=O)[C@H]1OC(C)=O`, the MIC in the assay on Staphylococcus aureus [18], in the assay with Escherichia coli [19], in the assay on Pseudomonas aeruginosa [20] and in the assay with Staphylococcus aureus [21] was greater than 250 µg/mL throughout.

For the compound `COc1ccc(-c2cc(-c3cccs3)nc(OCc3cn(CC(=O)Nc4ccc(C(C)=O)cc4)nn3)c2O)cc1`, the minimum inhibitory concentration (MIC) in the assay on Escherichia coli [22], in the assay with Staphylococcus aureus [23], in the assay on Bacillus subtilis and in the assay on Pseudomonas aeruginosa [24] was 0.5 µg/mL (≈ 0.9 µM) each time.
